Measurements: US11534457B2, “Use of dextran sulfate” (priority 2017, dated 2022)

B1: HGF: Hepatocyte growth factor (HGF) recombinant mouse (R&D Systems) (protein, UniProt Q08048 33-495; Q08048 496-728, looked up)
Hepatocyte growth factor …: QKKRRNTLHEFKKSAKTTLTKEDPLLKIKTKKVNSADECANRCIRNRGFTFTCKAFVFDKSRKRCYWYPFNSMSSGVKKGFGHEFDLYENKDYIRNCIIGKGGSYKGTVSITKSGIKCQPWNSMIPHEHSFLPSSYRGKDLQENYCRNPRGEEGGPWCFTSNPEVRYEVCDIPQCSEVECMTCNGESYRGPMDHTESGKTCQRWDQQTPHRHKFLPERYPDKGFDDNYCRNPDGKPRPWCYTLDPDTPWEYCAIKTCAHSAVNETDVPMETTECIQGQGEGYRGTSNTIWNGIPCQRWDSQYPHKHDITPENFKCKDLRENYCRNPDGAESPWCFTTDPNIRVGYCSQIPKCDVSSGQDCYRGNGKNYMGNLSKTRSGLTCSMWDKNMEDLHRHIFWEPDASKLNKNYCRNPDDDAHGPWCYTGNPLIPWDYCPISRCEGDTTPTIVNLDHPVISCAKTKQLR
Hepatocyte growth factor beta …: VVNGIPTQTTVGWMVSLKYRNKHICGGSLIKESWVLTARQCFPARNKDLKDYEAWLGIHDVHERGEEKRKQILNISQLVYGPEGSDLVLLKLARPAILDNFVSTIDLPSYGCTIPEKTTCSIYGWGYTGLINADGLLRVAHLYIMGNEKCSQHHQGKVTLNESELCAGAEKIGSGPCEGDYGGPLICEQHKMRMVLGVIVPGRGCAIPNRPGIFVRVAYYAKWIHKVILTYKL

Experiments:
[1] = target: T1, protein-protein interaction between oligomeric amyloid-β and PrP^c (Homo sapiens, UniProt P04156); type: binding
[2] = target: T1, protein-protein interaction between oligomeric amyloid-β and PrP^c; settings: cited from earlier work
[3] = system: Experimental Autoimmune Encephalomyelitis (EAE); assay: Mouse Experimental Autoimmune Encephalomyelitis (EAE) model, clinical score; type: in vivo, C57B1.6 mice; settings: 100 ng/dose i.v. every other day from day 18

| Molecule | competition for the protein-protein interaction (in words) [1] | Competable binding (%) [1] [%] | Hill coefficient [1] | IC50 [1] [µg/mL] | effective concentrations to compete with the protein-protein interaction (Aimi et al.) [2] | mean EAE score vs vehicle [3] |
| --- | --- | --- | --- | --- | --- | --- |
| dextran | failed to compete appreciably |  |  |  |  |  |
| dextran sulphate sodium salt [DSSS] | competed for the protein-protein interaction between oligomeric amyloid-β and PrP^c in a concentration dependent manner | 101 ± 2 | 1.51 ± 0.06 | 0.62 ± 0.07 | in the low μg/ml range |  |
| B1 |  |  |  |  |  | did not result in any significant difference |
